Measurements: patent US9682928B2 (NeuroPro Therapeutics, Inc., priority 2009, dated 2017)

Key:
[1] = tested on: Rat; assay: MES (Rat); type: in vivo
[2] = tested on: Rat; assay: Cortical spreading depression (rat), IP administration; type: in vivo
[3] = biological target: T1, Na+K+Cl− co-transporter (Rattus norvegicus, UniProt E9PTX9); assay: Na+K+Cl− cotransporter assay, 86Rb uptake in A7r5 cells; type: cell-based; details: 10 minutes at 37° C.; for inhibition at 10 µM: read-out: % Inhibition of Control Values; for remaining activity at 10 µM: read-out: % of Control Value
T1 construct: endogenous in cells; host or cells: A7r5 cells
T1 sequence (E9PTX9 1-1203): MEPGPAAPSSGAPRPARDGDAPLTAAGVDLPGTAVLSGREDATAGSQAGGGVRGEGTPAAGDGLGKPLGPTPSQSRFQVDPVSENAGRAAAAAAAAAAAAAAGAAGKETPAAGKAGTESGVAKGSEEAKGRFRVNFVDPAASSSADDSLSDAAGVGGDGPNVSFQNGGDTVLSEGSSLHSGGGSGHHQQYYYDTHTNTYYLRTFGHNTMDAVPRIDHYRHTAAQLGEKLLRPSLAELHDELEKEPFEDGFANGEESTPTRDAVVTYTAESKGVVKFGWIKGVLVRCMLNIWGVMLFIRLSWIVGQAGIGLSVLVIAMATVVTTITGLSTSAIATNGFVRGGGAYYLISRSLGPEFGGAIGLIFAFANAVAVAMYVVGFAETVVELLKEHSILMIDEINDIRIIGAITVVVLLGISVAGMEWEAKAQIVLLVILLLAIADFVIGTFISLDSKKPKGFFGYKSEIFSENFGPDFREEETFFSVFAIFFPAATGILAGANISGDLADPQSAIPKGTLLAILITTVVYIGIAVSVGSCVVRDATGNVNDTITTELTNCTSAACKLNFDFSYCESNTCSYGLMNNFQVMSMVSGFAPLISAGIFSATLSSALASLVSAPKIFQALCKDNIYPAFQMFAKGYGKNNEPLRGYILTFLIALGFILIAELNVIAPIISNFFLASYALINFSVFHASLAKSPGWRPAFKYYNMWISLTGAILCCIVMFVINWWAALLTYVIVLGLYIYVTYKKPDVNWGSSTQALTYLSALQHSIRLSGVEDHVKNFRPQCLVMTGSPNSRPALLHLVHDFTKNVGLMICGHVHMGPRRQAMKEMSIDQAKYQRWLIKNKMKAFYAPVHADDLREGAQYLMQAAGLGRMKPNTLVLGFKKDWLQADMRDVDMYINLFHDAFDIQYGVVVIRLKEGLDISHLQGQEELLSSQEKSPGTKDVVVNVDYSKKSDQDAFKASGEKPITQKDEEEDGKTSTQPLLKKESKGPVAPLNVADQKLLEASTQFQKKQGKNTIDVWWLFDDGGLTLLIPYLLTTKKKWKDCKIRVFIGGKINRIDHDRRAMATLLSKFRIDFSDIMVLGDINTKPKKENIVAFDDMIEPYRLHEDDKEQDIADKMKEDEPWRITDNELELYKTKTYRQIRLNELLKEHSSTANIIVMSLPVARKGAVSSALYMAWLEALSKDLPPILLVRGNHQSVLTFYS
Description: Na^+K^+Cl^− co-transporter activity was measured in vitro in A7r5 cells by measuring their uptake of ^86Rb (0.2 μCi) in 10 minutes at 37° C. as detected by scintillation counting. See Chassande, et al. (1988) “The Na^+/K^+/Cl^− Cotransport in C6 glioma cells. Properties and role in volume regulation.” Eur. J. Biochem. 171: 425433.

[4] = tested on: Mice; assay: 6 Hz (Mice); type: in vivo
[5] = tested on: adult mice (C57/B16); assay: Mesial temporal lobe epilepsy model (mice), hippocampal discharges; type: in vivo, mouse; details: for Cumulative duration of hippocampal discharges / Number of hippocampal discharges: 50 mg/kg for NTP-2014 and NTP-2026, 150 mg/kg for NTP-2024, NTP-2006, NTP-1007, NTP-1003; for Suppression of discharges through 80 minutes post-dose: 25 and 50 mg/kg (NTP-2014), 50 mg/kg (NTP-2026); for Significant decrease in cumulative duration of and total number of hippocampal discharges: dose-response study, mice
Description: Antiepileptic protocol: Up to eight adult mice (C57/B16) are injected with kainate (1 nmol in 50 nl) and are implanted with a bipolar electrode in the dorsal hippocampus using stereotaxic techniques under general anesthesia. […] Drug conditions are counter-balanced, the animals being used as their own controls. Digital EEG recordings are performed in freely moving animals for 20 min pre-injection and 80 min post-injection. The effects of the injected compound are compared versus vehicle injections and reference period (pre-dose). Upon completion of the experiment, standard histological analysis are performed to verify electrode location, cell losses in CA1, CA3 and hilus, as well as dentate gyrus dispersion. Only animals with all characteristics of MTLE are used in data analysis. […] The results below are normalized to the pre-dose condition for each of the treatment group including DMSO and saline vehicle controls. Doses of test article compounds were 50 mg/kg for NTP-2014 and NTP-2026 and 150 mg/kg for NTP-2024, NTP-2006, NTP-1007, and NTP-1003. Therefore the bumetanide, furosemide, piretanide, azosemide, and torsemide esters and amide analogs described herein may be used in therapeutic methods to treat seizures.

[6] = doses up to 200 mg/kg, no metabolic inhibitor coadministered

Row | SMILES | inhibition at 10 µM [3] [%] | remaining activity at 10 µM [3] [%] | Toxicity in 6 Hz study ([4]; 100 mg/kg) | Cumulative duration of hippocampal discharges [5] | Number of hippocampal discharges [5] | Suppression of discharges through 80 minutes post-dose [5] | Significant decrease in cumulative duration of and total number of hippocampal discharges [5] | other results
1 | CCCCNc1cc(C(=O)O)cc(S(N)(=O)=O)c1Oc1ccccc1 [Bumetanide, reference compound] | 76 | 24 |  |  |  |  |  | Activity in MES [1, 6]: No activity at doses up; Decrease in CSD events ([2]; 10 and 30 mg/kg, p~0.05): CSD events (~30%) at 10 and 30
2 | CCCCN(CCCC)c1cc(C(=O)O)cc(S(N)(=O)=O)c1Oc1ccccc1 [NTP-2014, 3-Aminosulfonyl-5-N,N-dibutylamino-4-phenoxybenzoic acid] | -4 | 104 | mg/kg. No toxicity. | decreased | decreased | 25 and 50 mg/kg, near complete | Dose-response relationship | Significant adverse events ([1]; 100 mg/kg): seen at 300 mg/kg. No; Toxic effects ([1]; 300 mg/kg): mg/kg. Toxic effects; Rats with complete suppression ([1]; at 4 hr, 100 mg/kg): at 4 hr in 2/3 rats at 100; Suppression / activity in 6 Hz ([4]; 100 mg/kg, NTP-2014: all animals to 1 h, majority through 4 h, NTP-2026: 2 timepoints (2 hr, 4 hr)): Complete; Change in CSD events ([2]; 10 mg/kg IP, p < 0.05): −38%; Change in CSD events ([2]; 50 mg/kg IP, p < 0.05): −37%; Change in CSD events ([2]; 75 mg/kg IP, p < 0.05): −47%
3 | CCCCNc1cc(C(=O)NN2CCOCC2)cc(S(N)(=O)=O)c1Oc1ccccc1 [NTP-2024, N-Morpholinyl 3-Aminosulfonyl-5-N-butylamino-4-phenoxybenzamide] |  |  |  | decreased | decreased |  | Dose-response relationship | Activity in 6 Hz [4, 6]: No activity at doses; Decrease in CSD events ([2]; 300 mg/kg, co-administered general metabolic inhibitor (NS)): 32% decrease in CSD events at; % Inhibition of Control Values ([3]; 10 μM): 20%; % of Control Value ([3]; 10 μM): 80.2%
4 | CCCCNc1cc(C(=O)N(C)CCCN(C)C)cc(S(N)(=O)=O)c1Oc1ccccc1 [NTP-2026, N-(3-(Dimethylamino)propyl)-N-methyl 3-Aminosulfonyl-5-N-butylamino-4-phenoxybenzamide] |  |  | No toxicity. | decreased | decreased | 50 mg/kg, near complete suppression of | Dose-response relationship | Activity in MES ([1]; 30, 100, 330 mg/kg): No activity at 30, 100,; Decrease in CSD events ([2]; 10-75 mg/kg, p < 0.05): CSD events (~30-40%) at 10-75
